Activity calls are given as the source filed them. How the calls were made is not given here.
Tested on: HeLa, chromatin condensation phenotype imaging
Assay: HeLa chromatin condensation increase, dose response, imaging, IC50 (AID 1117350)

SMILES | IC50
O[C@@H](CNC[C@H](O)[C@H]1CCc2cc(F)ccc2O1)[C@@H]1CCc2cc(F)ccc2O1 | > 10 µM (inactive)
O=C(O)c1ccc(-n2nc(-c3ccccc3O)nc2-c2ccccc2O)cc1 | > 10 µM (inactive)
O=C(O)CCc1nc2ccccc2[nH]1 | > 10 µM (inactive)
COC(=O)Nc1nc2ccc(C(=O)c3cccs3)cc2[nH]1 | 0.0134 µM
CC(C)=CCC/C(C)=C/CC/C(C)=C/C(=O)OCC(=O)[C@@]1(O)CC[C@H]2[C@@H]3CCC4=CC(=O)C=C[C@]4(C)[C@H]3[C@@H](O)C[C@@]21C | > 10 µM (inactive)
CC[C@@]1(O)C(=O)OCc2c1cc1n(c2=O)Cc2cc3c(CN(C)C)c(O)ccc3nc2-1 | > 10 µM (inactive)
COC(=O)Nc1nc2ccc(Sc3ccccc3)cc2[nH]1 | 0.228 µM
OC[C@H]1O[C@@H](n2cnc3c(=S)nc[nH]c32)[C@H](O)[C@@H]1O | > 10 µM (inactive)
COc1cccc2c1C(=O)c1c(O)c3c(c(O)c1C2=O)C[C@@](O)(C(=O)CO)CC3OC1CC(N2CCOC(OC)C2)C(O)C(C)O1 (stereo partly specified) | 0.0118 µM
CCCCOC(=O)c1ccc(N)cc1 | > 10 µM (inactive)
COCCOC(=O)C1=C(C)NC(C)=C(C(=O)OC/C=C/c2ccccc2)C1c1cccc([N+](=O)[O-])c1 (stereo unspecified) | > 10 µM (inactive)
CCCCCCCCCCCCCCCC[n+]1ccccc1 | 0.515 µM
O=C1C2CC=CCC2C(=O)N1SC(Cl)(Cl)Cl (stereo unspecified) | 6.14 µM (inactive)
CCC(=O)c1ccc(O)cc1 | > 10 µM (inactive)
CCCCCCCCCCCCCCCCNc1ccc(C(=O)O)cc1 | > 10 µM (inactive)
O=C1C(=O)c2ccccc2C(O)=C1C1CCC(c2ccc(Cl)cc2)CC1 (stereo unspecified) | > 10 µM (inactive)
COc1cccc2c1C(=O)c1c(O)c3c(c(O)c1C2=O)C[C@@](O)(C(=O)CO)C[C@@H]3O[C@H]1C[C@H](N)[C@H](O[C@@H]2CCCCO2)[C@H](C)O1 | > 10 µM (inactive)
CC(C)OC(=O)OCOP(=O)(CO[C@H](C)Cn1cnc2c(N)ncnc21)OCOC(=O)OC(C)C | > 10 µM (inactive)
CCN(CC)CCOc1ccc(/C(=C(\Cl)c2ccccc2)c2ccccc2)cc1 | > 10 µM (inactive)
O=c1c(-c2ccccc2)c1-c1ccccc1 | > 10 µM (inactive)
NC(N)=NN=C(/C=C/c1ccc([N+](=O)[O-])o1)/C=C/c1ccc([N+](=O)[O-])o1 | > 10 µM (inactive)
CCC(COC(=O)c1cc(OC)c(OC)c(OC)c1)(c1ccccc1)N(C)C (stereo unspecified) | > 10 µM (inactive)
CCCCC1C(=O)N(c2ccccc2)N(c2ccc(O)cc2)C1=O (stereo unspecified) | > 10 µM (inactive)
O=C(CCBr)N1CCN(C(=O)CCBr)CC1 | > 10 µM (inactive)
Oc1c(I)cc(I)c2cccnc12 | > 10 µM (inactive)
CC[C@@H]([C@H](C)O)n1ncn(-c2ccc(N3CCN(c4ccc(OC[C@@H]5CO[C@@](Cn6cncn6)(c6ccc(F)cc6F)C5)cc4)CC3)cc2)c1=O | > 10 µM (inactive)

SMILES | IC50
Nc1nc(F)nc2c1ncn2[C@@H]1O[C@H](CO)[C@@H](O)[C@@H]1O | > 10 µM (inactive)
O=C(c1cc(O)c(O)c(O)c1)c1ccc(O)c(O)c1O | > 10 µM (inactive)
CC(C)=CCOc1ccc(/C=C/C(=O)c2ccc(OCC=C(C)C)cc2OCC(=O)O)cc1 | > 10 µM (inactive)
CCCCCCCCCCCCCCCC[N+](C)(C)CCN(Cc1ccc(OC)cc1)c1ncccn1 | > 10 µM (inactive)
C=CC(=O)Nc1cc2c(Nc3ccc(F)c(Cl)c3)ncnc2cc1OCCCN1CCOCC1 | 4.29 µM
CC[C@@]1(O)C(=O)OCc2c1cc1n(c2=O)Cc2c-1nc1ccccc1c2/C=N/OC(C)(C)C | > 10 µM (inactive)
CCCCCCCCCCCCNCCNCCNCC(=O)O | > 10 µM (inactive)
Nc1nc(=O)n([C@@H]2O[C@H](CO)[C@@H](O)[C@@H]2F)cc1I | > 10 µM (inactive)
[O-][n+]1ccccc1SSc1cccc[n+]1[O-] | 2.23 µM
CSc1ccc2c(c1)C(N1CCN(C)CC1)Cc1ccccc1S2 (stereo unspecified) | > 10 µM (inactive)
Cc1ccc(Nc2nccc(N(C)c3ccc4c(C)n(C)nc4c3)n2)cc1S(N)(=O)=O | > 10 µM (inactive)
CCCCCCCCCCCCCCCC[N+](C)(C)Cc1ccccc1 | > 10 µM (inactive)
C[C@@H](O[C@H]1OCCN(Cc2n[nH]c(=O)[nH]2)[C@H]1c1ccc(F)cc1)c1cc(C(F)(F)F)cc(C(F)(F)F)c1 | > 10 µM (inactive)
COc1cc(NC(C)CCCN)c2ncccc2c1 (stereo unspecified) | > 10 µM (inactive)
CN(C)CCOC(c1ccccc1)c1ccc(Br)cc1 (stereo unspecified) | > 10 µM (inactive)
NCCCC[C@H](N[C@@H](CCc1ccccc1)C(=O)O)C(=O)N1CCC[C@H]1C(=O)O | > 10 µM (inactive)
O=C(CCl)c1ccc(Cl)cc1Cl | 0.541 µM
CN1CCC(Nc2ncc3ncnc(Nc4ccc(F)c(Cl)c4)c3n2)CC1 | > 10 µM (inactive)
CCc1oc2ccccc2c1C(=O)c1cc(I)c(O)c(I)c1 | > 10 µM (inactive)
CC(C)C[C@H](NC(=O)[C@H](CCc1ccccc1)NC(=O)CN1CCOCC1)C(=O)N[C@@H](Cc1ccccc1)C(=O)N[C@@H](CC(C)C)C(=O)[C@@]1(C)CO1 | > 10 µM (inactive)
O=C1[C@H]2CCCC[C@H]2C(=O)N1CCCCN1CCN(c2nsc3ccccc23)CC1 | > 10 µM (inactive)
Oc1c(Cl)cc(Cl)cc1Sc1cc(Cl)cc(Cl)c1O | > 10 µM (inactive)
CC[C@H]1CN2CCc3cc(OC)c(OC)cc3[C@@H]2C[C@@H]1C[C@H]1NCCc2cc(OC)c(OC)cc21 | 0.948 µM
O=C(O)CCCc1ccc(N(CCCl)CCCl)cc1 | > 10 µM (inactive)
CC(C)(C)C1CCC(CC2=C(O)c3ccccc3C(=O)C2=O)CC1 (stereo unspecified) | > 10 µM (inactive)
CC(C)n1c(/C=C/[C@@H](O)C[C@@H](O)CC(=O)O)c(-c2ccc(F)cc2)c2ccccc21 | > 10 µM (inactive)

SMILES | IC50
NC(=NCCCCCCN=C(N)/N=C(\N)Nc1ccc(Cl)cc1)/N=C(\N)Nc1ccc(Cl)cc1 | > 10 µM (inactive)
O=C(O)CN(CCN(CC(=O)O)CC(=O)O)CCN(CC(=O)O)CC(=O)O | > 10 µM (inactive)
COC(=O)Nc1nc2ccc(C(=O)C3CC3)cc2[nH]1 | 0.402 µM
CC(=O)O[C@@]12CO[C@@H]1C[C@H](O)[C@@]1(C)C(=O)[C@H](O)C3=C(C)[C@@H](OC(=O)[C@H](O)[C@@H](NC(=O)OC(C)(C)C)c4ccccc4)C[C@@](O)([C@@H](OC(=O)c4ccccc4)[C@H]21)C3(C)C | 0.00317 µM
Cc1cc(N)c2ccccc2[n+]1CCCCCCCCCC[n+]1c(C)cc(N)c2ccccc21 | > 10 µM (inactive)
C[C@@]12C(=O)OC(=O)[C@]1(C)C1CCC2O1 | 8.5 µM (inactive)
CCCN(CCC)C(=O)C(CCC(=O)OCCCN1CCN(CCOC(=O)Cc2c(C)n(C(=O)c3ccc(Cl)cc3)c3ccc(OC)cc23)CC1)NC(=O)c1ccccc1 (stereo unspecified) | > 10 µM (inactive)
CC[C@]1(O)C[C@H]2CN(CCc3c([nH]c4ccccc34)[C@@](C(=O)OC)(c3cc4c(cc3OC)N(C=O)[C@H]3[C@@](O)(C(=O)OC)[C@H](OC(C)=O)[C@]5(CC)C=CCN6CC[C@]43[C@@H]65)C2)C1 | 0.0061 µM
Cc1ccccc1C(OCCN(C)C)c1ccccc1 (stereo unspecified) | > 10 µM (inactive)
CCCNCC(O)COc1ccccc1C(=O)CCc1ccccc1 (stereo unspecified) | > 10 µM (inactive)
COc1cc(-c2ccc(=O)[nH]n2)ccc1OC(F)F | > 10 µM (inactive)
CC(=O)Nc1ccn(C2COC(COC(=O)c3ccccc3)O2)c(=O)n1 (stereo unspecified) | > 10 µM (inactive)
O=c1[nH]c(=O)n([C@H]2C[C@H](O)[C@@H](CO)O2)cc1I | > 10 µM (inactive)
CCCCC(CC)CN=C(N)NC(N)=NCCCCCCN=C(N)NC(N)=NCC(CC)CCCC (stereo unspecified) | > 10 µM (inactive)
Cc1c(C)c2c(c(C)c1O)CCC(C)(COc1ccc(CC3SC(=O)NC3=O)cc1)O2 (stereo unspecified) | > 10 µM (inactive)
O=C(Nc1ccc([N+](=O)[O-])cc1Cl)c1cc(Cl)ccc1O | > 10 µM (inactive)
Cc1ccc2nc(N)[nH]c(=O)c2c1Sc1ccncc1 | > 10 µM (inactive)
Cc1cc(C2CCCCC2)n(O)c(=O)c1 | > 10 µM (inactive)
Cc1nc(N)nc(N)c1-c1ccc(Cl)c(Cl)c1 | > 10 µM (inactive)
COc1ccc2cc3[n+](cc2c1OC)CCc1cc2c(cc1-3)OCO2 | > 10 µM (inactive)
CC(C)c1c(C(=O)Nc2ccccc2)c(-c2ccccc2)c(-c2ccc(F)cc2)n1CC[C@@H](O)C[C@@H](O)CC(=O)O | > 10 µM (inactive)
CCCCCCCCCCOCC(O)CN (stereo unspecified) | > 10 µM (inactive)
CCCCCCCCCCCC(=O)[O][Sn]([CH2]CCC)([CH2]CCC)[O]C(=O)CCCCCCCCCCC | > 10 µM (inactive)
O=C1C(I)=CC(=C(c2cc(I)c(O)c(I)c2)c2ccccc2C(=O)O)C=C1I | > 10 µM (inactive)

— PubChem BioAssay AID1117350 (Cheminformatics & Chemogenomics Research Group (CCRG), …, 2015)
